Test results: article PMC6900522 (Proceedings of the National Academy of Sciences of the …, 2019)

T1: GUN1-PS (Arabidopsis thaliana, UniProt Q9SIC9)
T1 sequence (Q9SIC9 232-918): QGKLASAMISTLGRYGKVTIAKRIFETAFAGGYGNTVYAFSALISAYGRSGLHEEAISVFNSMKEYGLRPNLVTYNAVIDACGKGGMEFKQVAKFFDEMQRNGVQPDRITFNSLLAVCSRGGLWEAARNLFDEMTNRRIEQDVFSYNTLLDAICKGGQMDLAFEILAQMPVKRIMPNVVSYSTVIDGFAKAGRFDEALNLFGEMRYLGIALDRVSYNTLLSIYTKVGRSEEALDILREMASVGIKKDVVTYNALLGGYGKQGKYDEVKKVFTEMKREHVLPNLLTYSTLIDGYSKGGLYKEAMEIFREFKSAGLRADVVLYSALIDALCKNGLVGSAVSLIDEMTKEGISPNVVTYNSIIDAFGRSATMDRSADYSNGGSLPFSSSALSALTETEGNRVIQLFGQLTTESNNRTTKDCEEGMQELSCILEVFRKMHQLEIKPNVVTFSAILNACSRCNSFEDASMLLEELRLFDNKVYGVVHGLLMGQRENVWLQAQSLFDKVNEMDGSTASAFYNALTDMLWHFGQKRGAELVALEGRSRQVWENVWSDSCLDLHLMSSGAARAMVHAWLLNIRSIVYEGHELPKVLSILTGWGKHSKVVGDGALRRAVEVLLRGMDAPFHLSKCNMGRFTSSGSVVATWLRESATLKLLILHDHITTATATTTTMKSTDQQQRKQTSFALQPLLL

B1: FC1 (Arabidopsis thaliana) (protein)
chain: CDIKERSFGESMTITNRGLSFKTNVFEQARSVTGDCSYDETSAKARSHVVAEDKIGVLLLNLGGPETLNDVQPFLYNLFADPDIIRLPRPFQFLQGTIAKFISVVRAPKSKEGYAAIGGGSPLRKITDEQADAIKMSLQAKNIAANVYVGMRYWYPFTEEAVQQIKKDKITRLVVLPLYPQYSISTTGSSIRVLQDLFRKDPYLAGVPVAIIKSWYQRRGYVNSMADLIEKELQTFSDPKEVMIFFSAHGVPVSYVENAGDPYQKQMEECIDLIMEELKARGVLNDHKLAYQSRVGPVQWLKPYTDEVLVDLGKSGVKSLLAVPVSFVSEHIETLEEIDMEYRELALESGVENWGRVPALGLTPSFITDLADAVIESLPSAEAMSNPNAVVDSEDSESSDAFSYIVKMFFGSILAFVLLLSPKMFHAFRNL

Legend:
GUN1-PS = molecular target: T1, GUN1-PS; assay: differential absorption spectrophotometry; type: binding
purified protein = substrate: C=CC1=C(C)c2cc3[nH]c(cc4nc(cc5[nH]c(cc1n2)c(C)c5CCC(=O)O)C(CCC(=O)O)=C4C)c(C)c3C=C; assay: purified protein; conditions: Zn chelation; without GUN1-PS

Molecule | Kd (GUN1-PS) [µM] | Km (purified protein) [µM]
C=CC1=C(C)C2=Cc3c(C=C)c(C)c4[n]3[Fe]([Cl])[n]3c(c(C)c(CCC(=O)O)c3=CC3=NC(=C4)C(C)=C3CCC(=O)O)=CC1=N2 [hemin] | 6.08 ± 1.11 | 
C=CC1=C(C)c2cc3[nH]c(cc4nc(cc5[nH]c(cc1n2)c(C)c5CCC(=O)O)C(CCC(=O)O)=C4C)c(C)c3C=C [Proto IX] | 4.42 ± 0.56 | 
B1 |  | 26.5
